Data as given in patent US20090068290A1, “BIFEPRUNOX DOSES FOR TREATING SCHIZOPHRENIA” (priority 2006, published 2009).

Test system: adult subjects with schizophrenia
Experiment: Adverse events (TEAE, SAE, discontinuation, EPS-related TEAE, anticholinergic use), Clinical Study One
Format: in vivo, human
Procedure: METHODOLOGY: This was a randomized, double-blind, fixed-dose, placebo-controlled, risperidone-referenced, parallel group, multi-center study in adult subjects with schizophrenia. There were five treatment groups in this study. […] Study medication was administered once daily. After Baseline measurements were performed, the titration phase was begun. Bifeprunox treated subjects were titrated up to 5 mg, 10 mg or 20 mg according to a standardized titration schedule (Day 1: 0.125 mg, Day 2: 0.25 mg, Day 3: 0.5 mg, Day 4: 1.0 mg, Day 5: 2.0 mg, Day 6: 5.0 mg, Day 7: 10.0 mg, Day 8: 20 mg).

SMILES: O=c1[nH]c2cccc(N3CCN(Cc4cccc(-c5ccccc5)c4)CC3)c2o1 [Bifeprunox, 7-[4-([1,1′-biphenyl]-3-ylmethyl)-1-piperazinyl]-2(3H)-benzoxazolone]
- TEAE Akathisia, % (5 mg, Safety Population): (<1%)
- TEAE Benign Skin Neoplasm Nos, % (5 mg, Safety Population): (<1%)
- TEAE Muscle Stiffness, % (5 mg, Safety Population): (<1%)
- TEAE Muscle Tightness, % (5 mg, Safety Population): (<1%)
- TEAE Muscle Twitching, % (5 mg, Safety Population): (2%)
- TEAE NEOPLASMS BENIGN, MALIGNANT AND UNSPECIFIED (INCL CYSTS AND POLYPS), % (5 mg, Safety Population): (2%)
- TEAE NERVOUS SYSTEM DISORDERS, % (5 mg, Safety Population): (48%)
- TEAE Neck Pain, % (5 mg, Safety Population): (<1%)
- TEAE Pain in Jaw, % (5 mg, Safety Population): (<1%)
- TEAE Pain in Limb, % (5 mg, Safety Population): (<1%)
- TEAE Skin Papilloma, % (5 mg, Safety Population): (<1%)
- TEAE Akathisia, % (10 mg, Safety Population): (2%)
- TEAE Muscle Stiffness, % (10 mg, Safety Population): (<1%)
- TEAE Muscle Twitching, % (10 mg, Safety Population): (<1%)
- TEAE Musculoskeletal Discomfort, % (10 mg, Safety Population): (<1%)
- TEAE Myalgia, % (10 mg, Safety Population): (<1%)
- TEAE NERVOUS SYSTEM DISORDERS, % (10 mg, Safety Population): (50%)
- TEAE Neck Pain, % (10 mg, Safety Population): (3%)
- TEAE Pain in Jaw, % (10 mg, Safety Population): (<1%)
- TEAE Pain in Limb, % (10 mg, Safety Population): (2%)
- TEAE Akathisia, % (20 mg, Safety Population): (3%)
- TEAE Muscle Spasms, % (20 mg, Safety Population): (2%)
- TEAE Muscle Twitching, % (20 mg, Safety Population): (<1%)
- TEAE Myalgia, % (20 mg, Safety Population): (<1%)
- TEAE NERVOUS SYSTEM DISORDERS, % (20 mg, Safety Population): (43%)
- TEAE Neck Pain, % (20 mg, Safety Population): (2%)
- TEAE Pain in Limb, % (20 mg, Safety Population): (3%)
- TEAE Sensation of Heaviness, % (20 mg, Safety Population): (<1%)
- Acute Psychosis, % (BX 5 mg): (<1%)
- Aggression, % (BX 5 mg): (<1%)
- Agitation Aggravated, % (BX 5 mg): (4%)
- Agitation, % (BX 5 mg): (11%)
- Anxiety Aggravated, % (BX 5 mg): (3%)
- Anxiety, % (BX 5 mg): (5%)
- Confusion, % (BX 5 mg): (<1%)
- DIZZINESS, % (BX 5 mg): (14%)
- DYSKINESIA, % (BX 5 mg): (<1%)
- EXTRAPYRAMIDAL DISORDER, % (BX 5 mg): (1%)
- Gait Abnormal Nos, % (BX 5 mg): (<1%)
- Headache Nos, % (BX 5 mg): (30%)
- PSYCHIATRIC DISORDERS, % (BX 5 mg): (41%)
- Parkinsonian Rest Tremor, % (BX 5 mg): (<1%)
- SEDATION, % (BX 5 mg): (5%)
- SOMNOLENCE, % (BX 5 mg): (3%)
- Syncope, % (BX 5 mg): (<1%)
- TREMOR, % (BX 5 mg): (3%)
- Trismus, % (BX 5 mg): (<1%)
- Agitation Aggravated, % (BX 10 mg): (4%)
- Agitation, % (BX 10 mg): (9%)
- Anxiety Aggravated, % (BX 10 mg): (3%)
- Anxiety, % (BX 10 mg): (10%)
- DIZZINESS, % (BX 10 mg): (10%)
- DYSKINESIA, % (BX 10 mg): (<1%)
- Gait Abnormal Nos, % (BX 10 mg): (2%)
- Headache Nos, % (BX 10 mg): (35%)
- Hyperactivity Syndrome Aggravated, % (BX 10 mg): (<1%)
- Loss of Propriception, % (BX 10 mg): (<1%)
- Migraine Nos, % (BX 10 mg): (<1%)
- PSYCHIATRIC DISORDERS, % (BX 10 mg): (32%)
- SEDATION, % (BX 10 mg): (8%)
- SOMNOLENCE, % (BX 10 mg): (2%)
- Syncope, % (BX 10 mg): (3%)
- TARDIVE DYSKINESIA, % (BX 10 mg): (<1%)
- Adjustment Disorder Nos, % (BX 20 mg): (<1%)
- Affect Lability, % (BX 20 mg): (<1%)
- Aggression, % (BX 20 mg): (<1%)
- Agitation Aggravated, % (BX 20 mg): (<1%)
- Agitation, % (BX 20 mg): (11%)
- Anxiety Aggravated, % (BX 20 mg): (2%)
- Anxiety, % (BX 20 mg): (6%)
- Bruxism, % (BX 20 mg): (<1%)
- Confusion, % (BX 20 mg): (<1%)
- DIZZINESS, % (BX 20 mg): (7%)
- DYSARTHRIA, % (BX 20 mg): (<1%)
- Disturbance in Attention, % (BX 20 mg): (<1%)
- Dystonia, % (BX 20 mg): (<1%)
- EXTRAPYRAMIDAL DISORDER, % (BX 20 mg): (2%)
